Data: ChEMBL document CHEMBL1123387 (J Med Chem, 1986)
pKi: −log10 of the molar value. Square brackets hold non-standard residues; d marks the D form. Peptide text beside a SMILES is read from it. * marks the point of attachment. Sta = CC(C)C[C@H](N)[C@@H](O)CC(=O)O; Isovaleryl = CC(C)CC(=O)*; NHIsopentyl = CC(C)CCN*; Boc = CC(C)(C)OC(=O)*

How the values were obtained:
Cathepsin D = biological target: T1, Cathepsin D (Bos taurus, UniProt P80209); assay: Inhibition of cathepsin D.
T1 sequence (P80209 whole entry): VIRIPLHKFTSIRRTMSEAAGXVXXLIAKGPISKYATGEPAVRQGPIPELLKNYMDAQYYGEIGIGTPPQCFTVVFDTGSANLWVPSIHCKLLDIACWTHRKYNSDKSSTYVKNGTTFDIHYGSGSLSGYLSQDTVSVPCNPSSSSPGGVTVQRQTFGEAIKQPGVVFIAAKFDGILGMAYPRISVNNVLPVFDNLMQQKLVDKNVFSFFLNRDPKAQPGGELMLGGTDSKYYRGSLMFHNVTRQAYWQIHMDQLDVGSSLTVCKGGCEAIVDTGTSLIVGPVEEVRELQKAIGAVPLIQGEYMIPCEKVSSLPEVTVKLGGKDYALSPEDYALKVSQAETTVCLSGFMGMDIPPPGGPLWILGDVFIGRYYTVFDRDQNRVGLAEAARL

Pepsin A = Pepsin A (Sus scrofa, UniProt P00791); assay: Compound was tested for inhibition of pepsin.
Sequence of Pepsin A (P00791 whole entry): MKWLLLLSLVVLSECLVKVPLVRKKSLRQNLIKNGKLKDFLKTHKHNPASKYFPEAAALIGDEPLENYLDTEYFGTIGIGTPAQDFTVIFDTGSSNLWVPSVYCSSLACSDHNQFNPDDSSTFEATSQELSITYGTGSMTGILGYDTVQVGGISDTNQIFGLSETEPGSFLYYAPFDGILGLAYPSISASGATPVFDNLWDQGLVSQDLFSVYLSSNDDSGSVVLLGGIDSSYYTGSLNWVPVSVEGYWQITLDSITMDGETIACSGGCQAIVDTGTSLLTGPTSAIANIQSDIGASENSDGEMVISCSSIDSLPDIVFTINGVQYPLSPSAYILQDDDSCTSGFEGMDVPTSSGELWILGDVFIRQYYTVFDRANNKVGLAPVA

Compound | pKi (Cathepsin D) | pKi (Pepsin A)
COC(=O)[C@H](C)NC(=O)C[C@H](O)[C@H](CC(C)C)NC(=O)[C@@H](NC(=O)[C@@H](NC(=O)CC(C)C)C(C)C)C(C)C (Isovaleryl-VV[Sta]A-OMe) | 7.05 | 
COC(=O)[C@H](CC(C)C)NC(=O)[C@H](C)NC(=O)C[C@H](O)[C@H](CC(C)C)NC(=O)[C@@H](NC(=O)CC(C)C)C(C)C (Isovaleryl-V[Sta]AL-OMe) | 7.37 | 
CC(C)CCNC(=O)[C@H](C)NC(=O)C[C@@H](O)[C@@H](CC(C)C)NC(=O)[C@@H](NC(=O)[C@@H](NC(=O)OC(C)(C)C)C(C)C)C(C)C | 6.35 | 
CC(C)CCNC(=O)[C@H](C)NC(=O)C[C@H](O)[C@@H](Cc1ccccc1)NC(=O)[C@@H](NC(=O)[C@@H](NC(=O)CC(C)C)C(C)C)C(C)C | 7.00 | 
CC(C)CCNC(=O)[C@H](C)NC(=O)CC(=O)[C@H](CC(C)C)NC(=O)[C@@H](NC(=O)[C@@H](NC(=O)CC(C)C)C(C)C)C(C)C | 7.60 | 
CC(C)CCNC(=O)[C@H](C)NC(=O)C[C@H](O)[C@@H](Cc1ccccc1)NC(=O)[C@H](NC(=O)CC(C)C)C(C)C | 7.28 | 
CCC(C)C(=O)N[C@H](C(=O)N[C@@H](CC(C)C)[C@@H](O)CC(=O)N[C@@H](C)C(=O)NCCC(C)C)C(C)C (stereo partly specified) | 6.64 | 
CC(C)CCNC(=O)[C@H](C)NC(=O)C[C@H](O)[C@@H](CC(C)C)NC(=O)[C@@H](NC(=O)[C@@H](NC(=O)CC(C)C)C(C)C)C(C)C | < 7.00 | 
COC(=O)[C@H](Cc1ccccc1)NC(=O)[C@H](C)NC(=O)C[C@H](O)[C@H](CC(C)C)NC(=O)[C@@H](NC(=O)CC(C)C)C(C)C (Isovaleryl-V[Sta]AF-OMe) | 7.64 | 
CC(C)CCNC(=O)[C@H](C)NC(=O)C[C@H](O)[C@H](CC(C)C)NC(=O)[C@@H](NC(=O)C(C)(C)C)C(C)C | 6.96 | 
CCOC(=O)C[C@H](O)[C@H](CC(C)C)NC(=O)[C@@H](NC(=O)[C@@H](NC(=O)CC(C)C)C(C)C)C(C)C (Isovaleryl-Val-Val-[Sta]-OEt) | 6.74 | 
CC(C)CCNC(=O)[C@H](C)NC(=O)C[C@H](O)[C@H](CC(C)C)NC(=O)[C@@H](NC(=O)[C@@H](NC(=O)CC(C)C)C(C)C)C(C)C | 8.43 | 
COC(=O)[C@H](C)NC(=O)C[C@H](O)[C@H](CC(C)C)NC(=O)[C@@H](NC(=O)CC(C)C)C(C)C | 5.74 | 
COC(=O)[C@H](CC(C)C)NC(=O)[C@@H](NC(=O)C[C@H](O)[C@H](CC(C)C)NC(=O)[C@H](C)NC(=O)[C@H](C)NC(=O)[C@H](Cc1ccccc1)NC(=O)OC(C)(C)C)C(C)C (Boc-FAA[Sta]VL-OMe) | 7.92 | 8.55
CC(C)CCNC(=O)[C@H](C)NC(=O)C[C@@H](O)[C@@H](CC(C)C)NC(=O)[C@@H](NC(=O)CC(C)C)C(C)C | 5.85 | 
CC(C)CCNC(=O)[C@H](C)NC(=O)C[C@H](O)[C@@H](Cc1ccccc1)NC(=O)[C@@H](NC(=O)OC(C)(C)C)C(C)C | 5.31 | 
CC(C)CCNC(=O)[C@H](C)NC(=O)C[C@H](O)[C@H](Cc1ccccc1)NC(=O)[C@@H](NC(=O)[C@@H](NC(=O)OC(C)(C)C)C(C)C)C(C)C | 8.68 | 
CC(C)CCNC(=O)[C@H](C)NC(=O)C[C@H](O)[C@H](CC(C)C)NC(=O)[C@@H](NC(=O)OC(C)C)C(C)C | 6.21 | 

Compound | pKi (Cathepsin D) | pKi (Pepsin A)
CC(C)CCNC(=O)[C@H](C)NC(=O)C[C@H](C)[C@H](Cc1ccccc1)NC(=O)[C@@H](NC(=O)OC(C)(C)C)C(C)C | 6.03 | 
COC(=O)[C@H](CC(C)C)NC(=O)[C@@H](NC(=O)[C@H](Cc1ccccc1)NC(=O)C[C@H](O)[C@H](CC(C)C)NC(=O)[C@H](C)NC(=O)[C@H](CC(C)C)NC(=O)[C@H](Cc1ccccc1)NC(=O)OC(C)(C)C)C(C)C (Boc-FLA[Sta]FVL-OMe) | 8.24 | 9.19
CC(C)CCNC(=O)[C@H](C)NC(=O)C[C@H](C)[C@@H](CC(C)C)NC(=O)[C@@H](NC(=O)[C@@H](NC(=O)CC(C)C)C(C)C)C(C)C | 6.67 | 
CC(C)CCNC(=O)[C@H](C)NC(=O)C[C@H](O)[C@H](CC(C)C)NC(=O)[C@@H](NC(=O)[C@@H](NC(=O)OC(C)(C)C)C(C)C)C(C)C | 8.96 | 
CC(C)CCNC(=O)[C@H](C)NC(=O)C[C@H](O)[C@H](CC(C)C)NC(=O)[C@@H](NC(=O)CC(C)C)C(C)C | 6.66 | 
CC(C)CCNC(=O)[C@H](C)NC(=O)C[C@H](O)[C@H](CC(C)C)NC(=O)[C@H](C)NC(=O)[C@H](C)NC(=O)[C@H](Cc1ccccc1)NC(=O)OC(C)(C)C (Boc-FAA[Sta]A-NHIsopentyl) | 7.00 | 8.48
CC(C)CCNC(=O)[C@H](C)NC(=O)C[C@H](C)[C@H](CC(C)C)NC(=O)[C@@H](NC(=O)[C@@H](NC(=O)CC(C)C)C(C)C)C(C)C | 6.40 | 
CC(C)CCNC(=O)[C@H](C)NC(=O)C[C@H](O)[C@H](Cc1ccccc1)NC(=O)[C@H](NC(=O)CC(C)C)C(C)C | 5.97 | 
CC(C)CCNC(=O)[C@H](C)NC(=O)C[C@H](O)[C@H](Cc1ccccc1)NC(=O)[C@@H](NC(=O)[C@@H](NC(=O)CC(C)C)C(C)C)C(C)C | 9.00 | 
COC(=O)[C@H](CC(C)C)NC(=O)[C@@H](NC(=O)[C@H](Cc1ccccc1)NC(=O)C[C@H](O)[C@H](CC(C)C)NC(=O)[C@H](C)NC(=O)[C@H](Cc1ccccc1)NC(=O)[C@H](Cc1ccccc1)NC(=O)OC(C)(C)C)C(C)C (Boc-FFA[Sta]FVL-OMe) | 7.92 | 7.62
CC(C)CCNC(=O)[C@H](C)NC(=O)C[C@H](O)[C@@H](CC(C)C)NC(=O)[C@@H](NC(=O)CC(C)C)C(C)C | 5.68 | 
CC(C)CCNC(=O)[C@H](C)NC(=O)C[C@H](O)[C@@H](Cc1ccccc1)NC(=O)[C@@H](NC(=O)[C@@H](NC(=O)OC(C)(C)C)C(C)C)C(C)C | 7.02 | 
CC(C)CCNC(=O)[C@H](C)NC(=O)C[C@H](O)[C@H](Cc1ccccc1)NC(=O)[C@@H](NC(=O)OC(C)(C)C)C(C)C | 6.43 | 
CC(C)CCNC(=O)[C@H](C)NC(=O)C[C@H](O)[C@H](CC(C)C)NC(=O)[C@@H](NC(=O)OC(C)(C)C)C(C)C | 5.57 | 
CCC(CC)C(=O)N[C@H](C(=O)N[C@@H](CC(C)C)[C@@H](O)CC(=O)N[C@@H](C)C(=O)NCCC(C)C)C(C)C | 6.92 | 
COC(=O)[C@H](CC(C)C)NC(=O)[C@@H](NC(=O)[C@H](Cc1ccccc1)NC(=O)C[C@H](O)[C@H](CC(C)C)NC(=O)[C@H](C)NC(=O)[C@H](C)NC(=O)[C@H](Cc1ccccc1)NC(=O)OC(C)(C)C)C(C)C (Boc-FAA[Sta]FVL-OMe) | 7.22 | 8.77
CC(C)CCNC(=O)[C@H](C)NC(=O)C[C@H](O)[C@H](CC(C)C)NC(=O)[C@@H](NC(=O)C(C)C)C(C)C | 6.23 | 
CC(C)CCNC(=O)[C@H](C)NC(=O)C(C(=O)[C@H](CC(C)C)NC(=O)[C@@H](NC(=O)[C@@H](NC(=O)CC(C)C)C(C)C)C(C)C)[S+](C)C (stereo partly specified) | 6.97 | 
